The assay deals with MLV. Briefly: VRV study on Arginine treatment of PA eluate. The class given is cell-based, Murine Leukemia Virus. On the procedure: Based on the stability and activity studies reported in Example 1, the most promising viral inactivation methods were further tested for their ability to inactivate viruses. The effectiveness of the viral inactivation was evaluated by doing a spiking study at Bioreliance. Test samples were taken before and after each treatment and analyzed for viral titre. First, VRV study on Arginine treatment was carried out.
Only one virus, MLV, which is a typical model virus used for biological products derived from CHO cell lines such as monoclonal antibody, was used for this study. A total of 7 runs were performed. PA eluate from development runs was used as starting material. Different stock buffers of Arginine at the different pH (pH 4.0, pH 4.75, pH 4.79 and pH 5.5) were used to reach the target pH and concentration. The samples were neutralized using 250 mM Histidine pH 12.0 buffer around pH 6.0 to stop the reaction.
Log reduction values was calculated with respect to the neutralized load sample, a 5 plate large volume plating as well as a standard titration was performed on the t=60 min sample. The neutralized load hold sample was held at 16.0° C. to 20.0° C. for 60 minutes (runs 2, 4 and 6) or 120 minutes (runs 1, 3, 5 and 7).

In the case of `N=C(N)NCCC[C@H](N)C(=O)O` [Arginine], the log10 reduction factor reads like this: (Run 2, Arginine concentration (mM) 0.4, pH 4, 60 min) 4.16 +/− 0.32 log10; (Run 3, Arginine concentration (mM) 0.8, pH 4, 120 min) 4.10 +/− 0.35 log10; (Run 4, Arginine concentration (mM) 0.8, pH 4.75, 60 min) 2.82 +/− 0.4 log10; (Run 5, Arginine concentration (mM) 0.38, pH 4.79, 120 min) “no reduction”; (Run 6, Arginine concentration (mM) 0, pH 5.5, 60, 120 min) 0.35 +/− 0.4 log10; (Run 7, Arginine concentration (mM) 0.8, pH 5.5, 120 min) “no reduction”.

The values are drawn from patent US20240002434A1, “METHODS OF INACTIVATING VIRAL CONTAMINANTS” (ICHNOS SCIENCES SA, priority 2017, published 2024).
